Results from patent US20260345654A1, “2,8-DIHYDROXYQUINOLINE GLUCURONIDE DERIVATIVES WITH ENHANCED PROPERTIES FOR USE AS ANTICANCER, ANTIVIRAL, ANTIMICROBIAL, AND OTHER THERAPEUTIC APPLICATIONS” (priority 2023, published 2026).
“Also recorded” adds a separate entry of the source. Where two headings read alike, the source gives them in different places.

Legend:
[1] = system: basal cell and squamous cell cancer; assay: Case studies overview, topical W1469; format: in vivo, human
Experimental: (§1) Topical gel containing 0.5 mg/ml W1469 in proprietary aqueous alcohol gel, applied initially once daily using a suitable topical applicator.
(§2) In general, the Treatment/Patient protocol used for the patient testing was as follows: • 1. Photograph the application site prior to starting the protocol. Note any changes in lesion size, color, etc. of treatment area. • 2. Remove a loaded syringe from the freezer, dry ice or refrigerator and allow to gradually warm to room temperature. • 3. Photograph the syringe each time prior to application. Note the color of the gel contained in the syringe. • 4. Lightly clean the skin surface with alcohol wipe. • 5. […] Let the liquid from the gel absorb into the site without disturbing. Apply once a day at the same time. • 6. Re-cap the syringe and store in the refrigerator until completely used. • 7. Repeat 1-6 each daily during application period. It is noted in this protocol that photographing the syringe used with each application period accomplishes two things.
• 1. Toleration/toxicity • 2. Application methodology • 3. Any visual indications of efficacy • 4. Patient feedback Study Duration: Varied case by case. Generally, two weeks to two months

LnCAP cells = assay: In vitro anti-proliferation (CellTiter-Glo, 72 hr), LnCAP; format: cell-based
Experimental: (§3) Commercially available 8HQ and freshly synthesized G2-8HQ were prepared for in vitro anti-proliferative studies against the following cell lines with and without the presence of 10 μM Cu(+2): (1) A549: […]; (2) BT-549: epithelial cells from ductal tumor; (3) DU-145: human prostate cancer; (4) PANC-1: pancreatic cancer; (5) SU.86.86: a new adoptive pancreatic cell for immunotherapy studies; (6) RL: non-Hodgkin's lymphoma; (7) LnCAP, Prostate cancer cell line; (8) A431, a squamous cell carcinoma line; and (9) UACC-62 a malignant melanoma cell line.
(§4) With regard to the study protocol used, the objective was to conduct a study of the cytotoxicity of W1469 against several cancer cell lines. In the study protocol, preparations for the A549 (Lung) cell line screen are given as an example. The following materials were used: (1) FBS (2) RPMI-1640 medium supplemented with 10% FBS:’ and (3) A549 Cells. The four samples tested are referred to as Items 1-4 below and were placed at 4 °C upon arrival. These four samples were as follows: • Item 1: Tube A (W1469) (500 uM when FBS added) • Item 2: Tube B (W1469g) (1000 uM when FBS added) • Item 3: Tube C (W1469) • Item 4: Tube D (W1469g)
(§5) Add 50 μL of above 2× stocks to appropriate wells to expose appropriate cells to the final dilutions of samples. Add 50 μL media to media and cell control wells and 50 μL media mix to vehicle control wells. Cells are exposed for 72 hr. Following a 72 hr exposure to Sample, perform a CTG assay on all remaining plates.
(§6) At the end of the 72 hr exposure period, remove plates for CellTiter-Glo assay from 37 °C, 5% CO2 incubator and place on the bench at room temperature for 30 mins. Add 100 μL CellTiter-Glo reagent, mix for 2 mins, followed by a further 10 min incubation at room temperature. Record luminescence. Tables showing the resulting plate layouts are included below/
(§7) The other cancer cell lines tested gave similar results. […] Three additional cell lines were also studied and described more completely in Example 9 provided herein. These cell lines included cytotoxicity testing of WT1469 (G2-8HQ) against LnCAP a prostate cancer, A431 a squamous carcinoma cell line and UACC-62 a malignant melanoma cell line. All were complexed in situ with copper immediately prior to testing. The results from these additional cell lines and incorporated in Table 2 and Example 9.

A431 cells = assay: In vitro anti-proliferation (CellTiter-Glo, 72 hr), A431; format: cell-based
Experimental: as §3, §4, §5, §6, §7

squamous cell carcinoma = assay: Case study, topical W1469, squamous cell carcinoma (Individual 4); format: in vivo, human
Experimental: as §1, §2
Physician administered, variable treatment protocol, drug concentrations and vehicle carrier. A person with 2 mm ulcerative lesion (squamous cell carcinoma) to the post-auricular area of left side of the head. The lesion area had been biopsied and treated with cryotherapy one year prior. Lesion area had begun to reappear 3 months prior to this photo. After three days of once daily treatment, the same lesion was already reduced to approximately ½ of original size. […] Note: Subject's initial dosing schedule was once daily. […] Upon next visit (three days after initial dosing) […] dose was doubled while maintaining a once daily schedule. Over the next three days their lesion resolved completely and without any adverse reactions noted.

BT-549 cells = assay: In vitro anti-proliferation (CellTiter-Glo, 72 hr), BT-549; format: cell-based
Experimental: as §3, §4, §5, §6

RL cells = assay: In vitro anti-proliferation (CellTiter-Glo, 72 hr), RL; format: cell-based
Experimental: as §3, §4, §5, §6

PANC-1 cells = assay: In vitro anti-proliferation (CellTiter-Glo, 72 hr), PANC-1; format: cell-based
Experimental: as §3, §4, §5, §6

[2] = complexed with Cu in situ, * differences with or without excipient, suboptimal complexing, listed as W1469, read-out: IC50 (adjusted to MW of copper complex)
[3] = 1 and 0.5 μM, presence of Cu^+2 ions, wide standard deviation
[4] = +Cu (10 μM), 72 hr, G2-8HQ values based on MW of apo form (337), read-out: IC50

O=C(O)[C@H]1O[C@@H](Oc2ccc3cccc(O)c3n2)[C@H](O)[C@@H](O)[C@@H]1O [G2-8HQ, 8-Hydroxy-2-quinolinyl beta-D-glucopyranosiduronic acid]
Side Effects ([1]; all 4 case studies): No side effects were noted | appearance of skin surrounding the cancer lesion(s) ([1]; all 4 case studies): Marked improvements in general appearance of skin surrounding the cancer lesion(s) | cancer lesion size ([1]; all 4 case studies): Progressive reduction of cancer lesion size | dose dependency ([1]; all 4 case studies): higher concentrations work better | effect on adjacent tissue ([1]; all 4 case studies): Doesn't inflame or injure adjacent tissue | pain of treatment and application ([1]; all 4 case studies): not painful | time to rapid elimination of pain and visible inflammation ([1]; all 4 case studies): 2 to 5 days | toxicity ([1]; topical gel 0.5 mg/ml, once daily initially): no toxicity was observed | IC50 (LnCAP cells; +Cu, complexed in situ with copper immediately prior to testing, apo MW (337), read-out: IC50): 154 µM | IC50 (LnCAP cells; Homo sapiens, LNCaP, +Cu, complexed in situ with copper immediately prior to testing, apo MW (337), read-out: IC50): 109 µM | IC50 (LnCAP cells; Homo sapiens, LNCaP, complexed with Cu in situ, * differences with or without excipient, suboptimal complexing, read-out: IC50 (adjusted to MW of copper complex)): 46.9 µM | IC50 (LnCAP cells; [2]): 66.2 µM | IC50 (A431 cells; +Cu, complexed in situ with copper immediately prior to testing, not based on apo MW, read-out: IC50): 85 µM | IC50 (A431 cells; Homo sapiens, A-431, +Cu, complexed in situ with copper immediately prior to testing, not based on apo MW, read-out: IC50): 64 µM | IC50 (A431 cells; Homo sapiens, A-431, complexed with Cu in situ, * differences with or without excipient, suboptimal complexing, read-out: IC50 (adjusted to MW of copper complex)): 63.2 µM | IC50 (A431 cells; [2]): 83.4 µM | lesion size (fraction of original size) (squamous cell carcinoma; Individual 4, after three days of once daily treatment): approximately ½ | adverse reactions (squamous cell carcinoma; Individual 4, once daily, dose doubled after three days): no adverse reactions | lesion resolution (squamous cell carcinoma; Individual 4, regular treatment for one week): complete resolution of the patient's lesion | cytotoxicity (BT-549 cells; [3]): in some percentage of the screens all the cancer cells were killed at these concentrations | IC50 (BT-549 cells; [4]): 8.6 µM | IC50 (BT-549 cells; Homo sapiens, BT-549, 72 h, +Cu (10 μM), 72 hr, G2-8HQ values based on MW of apo form (337), read-out: IC50): 5.6 µM | IC50 (BT-549 cells; Homo sapiens, BT-549, 72 h, −Cu, 72 hr, read-out: IC50): > 500 µM | IC50 (BT-549 cells; Homo sapiens, BT-549, complexed with Cu, multiplied by 337/776=0.43, column 3 duplicate of column 2, read-out: IC50 (adjusted to MW of copper complex)): 2.4 µM | IC50 (BT-549 cells; complexed with Cu, multiplied by 337/776=0.43, column 3 duplicate of column 2, listed as W1469, read-out: IC50 (adjusted to MW of copper complex)): 3.7 µM | cytotoxicity (RL cells; [3]): in a percentage of cases, all of the cancer cells were killed at concentrations between at 1 and 0.5 μM; also recorded: in some % of the screens all the cancer cells were killed at these concentrations | IC50 (RL cells; [4]): 0.47 µM | IC50 (RL cells; Homo sapiens, RL, 72 h, +Cu (10 μM), 72 hr, G2-8HQ values based on MW of apo form (337), read-out: IC50): 0.468 µM | IC50 (RL cells; Homo sapiens, RL, 72 h, −Cu, 72 hr, read-out: IC50): > 500 µM | IC50 (RL cells; Homo sapiens, RL, complexed with Cu, multiplied by 337/776=0.43, read-out: IC50 (adjusted to MW of copper complex)): 0.2 µM | cytotoxicity (PANC-1 cells; [3]): at least some of the screens reflected that all the cancer cells were killed at these concentrations; also recorded: in some % of the screens all the cancer cells were killed at these concentrations | IC50 (PANC-1 cells; Homo sapiens, PANC-1, 72 h, −Cu, 72 hr): > 500 µM
